Tested on: MCF7
Assay: qPCR analysis of mRNA levels of genes associated with oncogenic progression, MCF7
Format: cell-based, human
Settings: MCF7, 10 μM
Experimental: Total RNA was isolated from cells using TRIzol Plus RNA Purification system as previously described in Pandey V et al., Endocrinology. 2010; 151(3):909-920. qPCR assays were performed as previously described in Pandey V et al., Endocrinology. 2010; 151(3):909-920; and Pandey V et al., Endocrinology. 2008; 149(8):3909-3919. Gene expression analysis was performed as previously described in Pandey V et al., Endocrinology. 2010; 151(3):909-920; and Pandey V et al., Endocrinology. 2008; 149(8):3909-3919.

Cc1cc(-c2ccc(C3C(C#N)=C(N)Oc4c3c(=O)oc3ccccc43)cc2)cnc1F (stereo not shown) [Compound 43, 2-Amino-4-(4-(6-fluoro-5-methylpyridin-3-yl)phenyl)-5-oxo-4H,5H-pyrano[3,2-c]chromene-3-carbonitrile]
APAF1 mRNA, Fold change relative to vehicle control: 0.94 fold
ATM mRNA, Fold change relative to vehicle control: 0.32 fold
BAD mRNA, Fold change relative to vehicle control: 0.09 fold
BAK1 mRNA, Fold change relative to vehicle control: 2.09 fold
BAX mRNA, Fold change relative to vehicle control: 18.54 fold
BCL2L1 mRNA, Fold change relative to vehicle control: 0.04 fold
BCL2 mRNA, Fold change relative to vehicle control: 0.06 fold
BCLAF1 mRNA, Fold change relative to vehicle control: 0.87 fold
BRCA1 mRNA, Fold change relative to vehicle control: 2.00 fold
CASP7 mRNA, Fold change relative to vehicle control: 30.71 fold
CCND1 mRNA, Fold change relative to vehicle control: 0.01 fold
CDC25A mRNA, Fold change relative to vehicle control: 0.49 fold
CDK2 mRNA, Fold change relative to vehicle control: 0.15 fold
CDK4 mRNA, Fold change relative to vehicle control: 0.18 fold
CDKN1A mRNA, Fold change relative to vehicle control: 114.92 fold
CDKN1B mRNA, Fold change relative to vehicle control: 11.08 fold
CDKN2A mRNA, Fold change relative to vehicle control: 5.45 fold
CFLAR mRNA, Fold change relative to vehicle control: 0.02 fold
CHEK2 mRNA, Fold change relative to vehicle control: 1.14 fold
Cyclin E1 mRNA, Fold change relative to vehicle control: 0.01 fold
E2F1 mRNA, Fold change relative to vehicle control: 1.80 fold
GZMA mRNA, Fold change relative to vehicle control: 0.93 fold
HTATIP2 mRNA, Fold change relative to vehicle control: 2.87 fold
MDM2 mRNA, Fold change relative to vehicle control: 6.62 fold
RB1 mRNA, Fold change relative to vehicle control: 1.00 fold
S100A4 mRNA, Fold change relative to vehicle control: 1.49 fold
TERT mRNA, Fold change relative to vehicle control: 0.11 fold
TNFRSF1A mRNA, Fold change relative to vehicle control: 1.15 fold
TNFRSF10B mRNA, Fold change relative to vehicle control: 1.05 fold
TNFRSF25 mRNA, Fold change relative to vehicle control: 1.41 fold
TP53 mRNA, Fold change relative to vehicle control: 282.98 fold

From US20200147039A1, “COMPOUNDS USEFUL IN INHIBITING HUMAN TREFOIL FACTOR 3” (NATIONAL UNIVERSITY OF SINGAPORE, priority 2017, published 2020)
